Experimental data as given in patent publication US7754721B2, “Arylpiperazine derivatives and uses thereof” (Roche Palo Alto LLC, priority 2006, dated 2010).

Molecular target: T1, human serotonin transporter (hSERT) (Homo sapiens, UniProt P31645)
T1 construct: expressed in transfected cells; membranes prepared
Test: hSERT scintillation proximity assay, competition with [3H]-Citalopram
Format: binding
Conditions: membranes of HEK-293 cells, Cheng-Prusoff
Description: The screening assay of this example was used to determine the affinity of ligands at the hSERT transporter by competition with [^3H]-Citalopram.
Scintillation Proximity Assay (SPA) works by bringing radioligand within close proximity to the bead's scintillant to stimulate light emission. In this assay, the receptor-containing membranes were pre-coupled to the SPA beads and the binding of the appropriate radioligand to the transporter was measured. The light emission was proportional to the amount of bound radioligand. Unbound radioligand produced no signal as a result of distant proximity to scintillant (lack of energy transfer). […]
Cell membranes were prepared using a membrane preparation buffer of 50 mM TRIS (pH 7.4). […] After a second centrifugation, the pellet was re-homogenized and brought to a final volume determined during the assay. […]
The % inhibition was calculated for each compound tested [(Compound counts per minute (CPM) at maximum concentration-Non-Specific CPM)/Total CPM*100]. […]
[formula] where max=total binding, min=non specific binding, x=concentration (M) of the tested compound and n=Hill slope. The inhibition dissociation constant (Ki) of each compound was determined according to the method of Cheng-Prusoff and then converted into negative logarithm (pKi) of the Ki.

T1 sequence (P31645 whole entry): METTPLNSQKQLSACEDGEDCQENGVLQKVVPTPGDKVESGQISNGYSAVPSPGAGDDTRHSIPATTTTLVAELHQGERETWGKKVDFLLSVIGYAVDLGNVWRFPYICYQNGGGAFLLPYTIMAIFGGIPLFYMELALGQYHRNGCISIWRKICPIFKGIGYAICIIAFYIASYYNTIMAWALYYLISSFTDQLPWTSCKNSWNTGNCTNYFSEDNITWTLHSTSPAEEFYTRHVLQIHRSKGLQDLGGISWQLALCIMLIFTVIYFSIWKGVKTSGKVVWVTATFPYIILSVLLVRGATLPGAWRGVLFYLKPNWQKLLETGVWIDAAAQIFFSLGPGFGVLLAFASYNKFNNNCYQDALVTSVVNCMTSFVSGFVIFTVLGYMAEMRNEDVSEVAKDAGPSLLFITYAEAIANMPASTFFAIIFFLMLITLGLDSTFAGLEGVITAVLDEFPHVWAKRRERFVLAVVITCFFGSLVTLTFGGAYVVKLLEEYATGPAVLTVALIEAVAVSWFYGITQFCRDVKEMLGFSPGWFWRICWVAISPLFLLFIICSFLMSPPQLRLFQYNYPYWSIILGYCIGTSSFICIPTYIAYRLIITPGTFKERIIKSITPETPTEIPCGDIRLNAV

- Ki: ~0.135 nM
SMILES: c1ccc(CC2CNCCN2c2ccc3cnccc3c2)cc1 (stereo not shown) [6-(2-Benzyl-piperazin-1-yl)-isoquinoline]
